The record followed here is US10627402B2, “Peptides for targeting gastric cancer, and medical use tehreof” (priority 2014, dated 2020).

The subject of experiment [1] is patient's gastric cancer tissue. As to the kind of experiment: Titering of phages eluted from extracted cancer tissue, relative to tissue weight. In kind it is in vivo, mouse. How it is done: (§1) Considering overcoming limitations that existing animal models transplanted with cultured cancer cells had, an ideal animal model of cancer similar to actual patient's cancer microenvironments is prepared. Then, to establish an animal model that can confirm influence of an irradiation-dependent cancer tissue, first, a mouse model transplanted with a cancer tissue that was extracted from an actual patient having gastric cancer was established. Regarding the establishment of such an animal model, the cancer tissue extracted from a patient was cultured in an NOD/SCID mouse. Once the cancer tissue was found in the NOD/SCID mouse, subculturing was carried out by using a Balb/c nude mouse, beginning from the next subculturing. In detail, after an NOD/SCID mouse was anesthetized via intraperitoneal injection of anesthetics, the cancer tissue was cut into pieces each having a size of 3×3 mm. Next, each of both flanks of the NOD/SCID mouse was transplanted with a piece of the cut cancer tissues, treated with a mixed solution of 100 μl of 100 IU/ml penicillin, 100 μg/ml streptomycin, 100 μg/ml gentamicin, and 2.5 μg/ml amphotericin B antibiotics, and then, sutured. The NOD/SCID mouse was recovered on a heating pad (for about 2 hours). Afterwards, the formation and growth of tumors were observed every week. When the cancer tissues grew to a size of 400-500 mm^3, the cancer tissues were separated and cut into pieces each having a size of 3×3 mm for subculturing. Next, for next subculturing, a nude mouse was anesthetized via intraperitoneal injection of anesthetics, and a piece of the cut cancer tissues was transplanted subcutaneously on the right thigh of the nude mouse. A transplantation site was changed from the flank to the both thighs so that irradiation can be locally done without affecting other organs during irradiation. That is, a mouse model in which a cancer tissue that underwent subculturing and was re-transplanted up to four times was formed was established. […] After having recovery time for no longer than 24 hours, in vivo peptide screening was performed. Here, as a control group in an irradiated population, a mouse model that was not irradiated among the same mouse models was used to screen a peptide.
(§2) After each of the prepared phages expressing the loop peptide was injected into the ratio-sensitive xenograft mouse model of Example 1 and the control group through the vein tail of the mouse, images were measured for 2 days immediately after the injection, thereby confirming images showing in vivo circulation of the peptide and the targeting of the peptide only in the cancer tissue while the targeting to other organs and tissues gradually disappeared. […] In addition, to verify which part of the cancer tissue was targeted by each of the loop peptide-expressing phages via ex vivo imaging, only the cancer tissue was separated and extracted, and the whole cancer tissue itself and the respective cancer tissue were subjected to fragmentation into several pieces.
To compare targeting efficiency more accurately based on the results of FIGS. 5 and 6, the pieces of the extracted cancer tissue the pieces of the extracted cancer tissue were collected independently, and phages bound to the cancer tissues were eluted. The concentration of each of the eluted phages was measured according to titering, and due to different size and weight of the extracted cancer tissue, the weight of each cancer tissue was also measured in terms of establishing numerical standardization. In this regard, the amount of the identified phages was calculated relative to the weight of the cancer tissue. In addition, to more accurately quantify each imaging result, the in vivo imaging and the ex vivo imaging were confirmed by measuring ROI values that were determined using the IVIS spectrum (Xenogen) program, and the results thereof are shown in Table 2.

For experiment [2] the test system is unchanged. The experiment can be described thus: In vivo imaging of Cy5.5-labeled peptide-expressing phages (IVIS spectrum, ROI values). Set-up: species or system mouse; unit not given here. The settings on record: Cy5.5-labeled phage, tail vein injection, 2nd day. The method, then:
as §1
(§3) In particular, 1 μg/μl of N-hydroxysuccinimide esters of Cy5.5 (Amersham) was added to 1 mL of bicarbonate buffer (pH 8.3) having the phage concentration of 10^11 plaque forming units (pfu), and then, in a condition where a dark environment was maintained, […] a phage-surface protein was linked to the Cy5.5 fluorescent probe at room temperature for 3 hours. That is, loop peptide-expressing phages to which the Cy5.5 fluorescent probe was linked were each obtained by precipitation with 170 μl of 20% (w/v) PEG 8000/2.5 M NaCl solution and purification. To determine a proportion of the Cy5.5 fluorescent probe linked to each of the finally obtained phage samples, an IVIS spectrum imaging system (Xenogen) was used for measurement, and region of interest (ROI) values were determined using the software program of a corresponding device. Accordingly, it was confirmed that the Cy5.5 fluorescent probe was linked to each of the phage samples at almost the same linking proportion.
as §2, with “pieces. […]” for “pieces.”

Experiment [3] shares this test system. The experiment can be described thus: Ex vivo imaging of extracted cancer tissue (IVIS spectrum, ROI values). In kind it is in vivo, mouse. Set-up: unit not given here. The method, then:
as §1, §3
as §2, with “pieces. […]” for “pieces.”

Setting [4] is: Non-irradiated population as control.

Regarding “QRSLPSL [Peptide W2, 7-amino-acid loop peptide from non-irradiated population; tested as Cy5.5-labeled M13 phage expressing it]”, the pfu/mg in experiment [1] (setting [4]) is 18.2 pfu/mg. Further, the “in vivo ROI” value in experiment [2] (setting [4]) is recorded as 2.19. Also, the “ex vivo ROI” value in experiment [3] (setting [4]) came out at 2.68.

“NWGDRIL [Peptide W1, 7-amino-acid loop peptide from non-irradiated population; tested as Cy5.5-labeled M13 phage expressing it]”: in experiment [1] (setting [4]), the pfu/mg worked out at 11.8 pfu/mg. Also, in experiment [2] (setting [4]), the “in vivo ROI” value was determined as 1.86. The “ex vivo ROI” value in experiment [3] (setting [4]) is recorded as 2.08.

Turning to Cy5.5 [reference compound], the “in vivo ROI” value in experiment [2] (Irradiated population (10 Gy)) and in experiment [2] (setting [4]) was 1.00 throughout. Also, the “ex vivo ROI” value in experiment [3] (Irradiated population (10 Gy)) and in experiment [3] (setting [4]) was 1.00 throughout.

The substance “TVRTSAD [Peptide P1, 7-amino-acid loop peptide from irradiated population; tested as Cy5.5-labeled M13 phage expressing it]” registered a pfu/mg in experiment [1] (Irradiated population (10 Gy)) of 25.3 pfu/mg. Further, the “in vivo ROI” value in experiment [2] (Irradiated population (10 Gy)) is 16.44. For the same substance, the “ex vivo ROI” value in experiment [3] (Irradiated population (10 Gy)) was 70.66.

In experiment [1] (Irradiated population (10 Gy)), “RYVGTLF [Peptide P2, 7-amino-acid loop peptide from irradiated population; tested as Cy5.5-labeled M13 phage expressing it]” returned a pfu/mg of 6.3 pfu/mg. For the same substance, in experiment [2] (Irradiated population (10 Gy)), the “in vivo ROI” value turned out to be 9.05. For the same substance, the “ex vivo ROI” value in experiment [3] (Irradiated population (10 Gy)) is 38.83.

With “NRGDRIL [Peptide P3, 7-amino-acid loop peptide from irradiated population; tested as Cy5.5-labeled M13 phage expressing it]”, the pfu/mg in experiment [1] (Irradiated population (10 Gy)) is 18.6 pfu/mg. Also, in experiment [2] (Irradiated population (10 Gy)), the “in vivo ROI” value is 19.83. The “ex vivo ROI” value in experiment [3] (Irradiated population (10 Gy)) is on record as 77.85.

In turn, “DVWHSAY [Peptide W3, 7-amino-acid loop peptide from non-irradiated population; tested as Cy5.5-labeled M13 phage expressing it]” had a pfu/mg in experiment [1] (setting [4]) of 8.1 pfu/mg. For the same substance, the “in vivo ROI” value in experiment [2] (setting [4]) is listed as 1.90. Besides, the “ex vivo ROI” value in experiment [3] (setting [4]) worked out at 3.54.
